The record followed here is the OPERA property sets (Mansouri et al. 2018).

The structures appear in SMILES notation. Values after ≈ are worked out from the molar mass of the structure shown.

Conditions in one data set: not given
As for `Cc1ccc(C(=O)CS(=O)(=O)c2ccc(C)cc2)cc1`, the logP (usually a log measure of how a compound divides between an organic and an aqueous phase) stood at 3.3. Still for that read-out and setting: in the case of `Clc1cc(Cl)c(-c2ccc(Cl)c(Cl)c2Cl)cc1Cl` it was 7.44. In the case of `O=C(O)c1cc(Oc2ccc(C(F)(F)F)cc2Cl)ccc1[N+](=O)[O-]`, the logP came to 3.7. Same read-out and setting: then `CC(C)c1cccc(-c2ccccc2)c1`, with 5.33; and `Cc1cc(C)nc(NS(=O)(=O)c2ccc(N)cc2)n1`, with 0.19.

Compound `Sc1nc2ccccc2s1` showed a logP of 2.42. Compound `NS(=O)(=O)c1nc2ccc([N+](=O)[O-])cc2s1` returned a logP of 1.36.

In turn, `Cc1cccc(OCCN(C)C)c1` gave a logP of 2.05. As to `COc1c2occc2cc2ccc(=O)oc12`, the logP amounted to 2. Compound `CCOC(=O)c1ccccc1O` registered a logP of 2.95.

In turn, `N=C(N)NN=C1C=CC(=NNC(N)=O)C=C1` had a logP of 1.56. Turning to `N=C(N)NN=Cc1cccc([N+](=O)[O-])c1`, the logP is 0.01. Same read-out and setting: in the case of `OCCC(F)(F)C(F)(F)C(F)(F)C(F)(F)F` it was 3.3. `CCOP(=S)(OCC)Oc1cc(C)nc(C(C)C)n1`: the solubility (usually the dissolved amount per volume that the medium holds) worked out at 0.131 mM (≈ 0.04 mg/mL).

On to `Cl.Cl.O=C1c2c(O)ccc(O)c2C(=O)c2c(NCCNCCO)ccc(NCCNCCO)c21`, for which the solubility amounted to 14.5 mM. On to `CCCCNCc1ccccc1`, for which the logP is 2.59. On to `N#Cc1cc(-c2ccncc2)cnc1NCCO`, for which the logP is 1.17.

`NS(=O)(=O)c1nn2c(=Nc3cccc(F)c3)snc2s1` registered a logP of 3.06. For `c1ccc2cc3c(ccc4ccccc43)cc2c1`, the logP amounted to 5.76. Compound `NS(=O)(=O)c1cc2c(cc1C(F)(F)F)NC(Cc1ccccc1)NS2(=O)=O` (stereo unspecified) had a logP of 1.89. `Nc1c(OC2C=CC(N3CCCCCC3=O)=CC2)cc(O)c2c1C(=O)c1ccccc1C2=O` (stereo unspecified) showed a logP of 5.3. In the case of `CCCCCCOC(=O)c1ccccc1C(=O)OCCCCCC`, the logP worked out at 6.82. `CCN=c1nc(Cl)[nH]c(=NC(C)CC)[nH]1` (stereo unspecified) showed a logP of 2.61. Turning to `Cc1cn(C2OC(CO)CC2F)c(=O)[nH]c1=O` (stereo unspecified), the logP was -0.44.

As to `CCOC1OC2OC3(C)CCC4C(C)C(O)CC(C1C)C24OO3` (stereo unspecified), the logP came out at 2.14. Compound `COC(=O)c1c[nH]c2ccccc12` registered a logP of 2.57.

Regarding `Cc1ccc(C=C(C#N)C#N)o1`, the logP was 2.03.

`N#Cc1cc(-c2ccncc2)cnc1N1CCCC1` had a logP of 2.95.

Take `OC[C@@H]1C[C@H](F)[C@H](n2cnc3cncnc32)O1`: the logP was -0.4.

`c1ccc2cc3c4ccccc4c4ccccc4c3cc2c1` had a logP of 6.41.

Take `NS(=O)(=O)c1cc2cc(CNCCF)sc2o1`: the logP was 0.34.

`CC(=O)OCN1C(=O)NC(c2ccccc2)(c2ccccc2)C1=O`: the logP was determined as 2.23. Take `N#CCCCCC#N`: the logP was -0.32.

With `CCOC(=O)[C@@H](N)Cc1ccc(O)cc1`, the logP was 0.72. `CCCCCCCCCCCCN1CC(C(=O)OC)CC1=O` (stereo unspecified) returned a logP of 4. `Cc1ncc(CO)c(C=O)c1O` had a solubility of 2990 mM (≈ 500 mg/mL).

Take `Nc1cc2ccccc2cc1N`: the logP came to 1.54. `COCOCCn1cnc2c(=N)n(C)c(=O)[nH]c21` displayed a logP of -1.52. With `CCCCCCC`, the logP turned out to be 4.66. With `CCCN1CCOC2c3cc(O)ccc3CCC21` (stereo unspecified), the logP was 2.44. On the same count and under the same terms, in the case of `BrCBr` it was 1.7. `Clc1ccc2c(Cl)ccnc2c1`: the logP is 3.57. In the case of `CCCC(O)CC` (stereo unspecified), the logP came out at 1.65. As for `CC(=O)Nc1nc2c(ncn2COCCO)c(=O)[nH]1`, the logP was -1.3. `COc1nc(NC(C)C)nc(NC(C)C)n1` returned a logP of 2.99. The same measure, in the same setting: then `CCC(CO)(CO)CO`, with -1.48; and `CCOC(=O)COc1cccc2ccccc12`, with 2.9. Turning to `CC(=O)n1ncc2c(O)ncnc21`, the logP is -0.35. In turn, `CN(C)P1(=O)N(C)CCN1C` displayed a logP of 0.02. `Clc1ccc2cc(Cl)c(Cl)cc2c1` registered a logP of 5.12 and a solubility of 7.21e-05 mM (≈ 1.67e-05 mg/mL). On to `Cc1c(Cl)c(Cl)c(C(C)C)c(Cl)c1Cl`, for which the logP came to 6.8. On the same count and under the same terms, then `CCCCCCCCCCCCN1CCCC1=O`, with 4.2. In turn, `CCOCCn1cnc2c(=N)n(C)c(=O)[nH]c21` displayed a logP of -0.4. The compound `O=C(OCCO)c1ccccc1` registered a logP of 1.12. Compound `Cc1ccc(S(=O)(=O)CC(=O)c2ccc(Cl)cc2)cc1` came in with a logP of 3.43.

In the case of `c1ccc2c(c1)oc1ccccc12`, the solubility was 0.0184 mM (≈ 0.0031 mg/mL). Take `NC(N)=Nc1nc(CSCCC(N)=NS(N)(=O)=O)cs1`: the logP is -0.64. Regarding `CC(=O)/C=C/C1C(C)=CCCC1(C)C` (stereo unspecified), the solubility is 0.551 mM (≈ 0.106 mg/mL).

In the case of `CC(=O)OCCC(C)C`, the logP was determined as 2.25. `c1ccc2c(c1)ccc1cc3ccc4ccccc4c3cc12` gave a logP of 6.54.

Regarding `NCCCN1c2ccccc2Sc2ccc(Cl)cc21`, the logP came to 4.47.

As for `CC(C)Nc1nc(Cl)nc(NCCO)n1`, the logP amounted to 0.78.

`C=CCC1(CC(C)O)C(=O)NC(=O)NC1=O` (stereo unspecified) displayed a logP of -0.05. The compound `CCn1cc(C(=O)NC(C)C(=O)OC)c(=O)c2ccc(C)nc21` (stereo unspecified) had a logP of 2.47. `Clc1cc(Cl)c(Oc2ccccc2)cc1Cl` registered a log partition coefficient (logP) of 5.44. Still for that read-out and setting: in the case of `COc1ccc(C=O)cc1OC` it was 1.22.

`CN1CC=C(c2cccc(N)c2)CC1` had a logP of 1.47. For the compound `O=C(c1ccc(Cl)cc1)c1cc(F)ccc1O`, the logP amounted to 4.05. Same read-out and setting: then `COc1ccc(S(=O)(=O)c2coc(S(N)(=O)=O)c2)cc1`, with 1.17; and `ClCC1(C(Cl)Cl)C2CC(Cl)(Cl)C1(C(Cl)Cl)C(Cl)C2Cl` (stereo unspecified), with 5.96; and `CCN(CC)P(=O)(N(CC)CC)N1CCCC1`, with 2.39.

For the compound `COC(=O)c1ccccc1CS(N)(=O)=O`, the logP was 0.37. In turn, `O=c1[nH]cnc2c1ncn2C1CC(O)C(CO)O1` (stereo unspecified) came in with a logP of -1.71. As for `O=c1[nH]c(=O)c2[nH]c(=O)[nH]c2[nH]1`, the lipophilicity (logP) was -2.17. On the same count and under the same terms, in the case of `CC(=O)Nc1ncc2ncn(COCCO)c2n1` it was -1.33.

The same data set, now with this note: 20 °C.
`N#CCCCCC#N`: the solubility was determined as 740 mM (≈ 80 mg/mL). On to `CN(C)c1ccc(C(=O)c2ccc(N(C)C)cc2)cc1`, for which the solubility was determined as 1.49 mM (≈ 0.4 mg/mL). On to `CCOP(=S)(OCC)Oc1nc(Cl)n(C(C)C)n1`, for which the solubility was found to be 0.324 mM (≈ 0.102 mg/mL). The compound `C=C(C)[C@H]1Cc2c(ccc3c2O[C@@H]2COc4cc(OC)c(OC)cc4[C@@H]2C3=O)O1` registered a solubility of 0.000507 mM (≈ 0.0002 mg/mL).

Staying with this data set, now noted: 22 °C.
Consider `ClC=CCCl` (mixture of isomers), for which the solubility came to 14.5 mM.

Staying with this data set, now noted: 23 °C.
Regarding `Clc1ccc(Cl)c(-c2ccc(Cl)c(Cl)c2)c1`, the solubility amounted to 0.000136 mM (≈ 3.97e-05 mg/mL).

Staying with this data set, now noted: 24 °C.
`Sc1nc2ccccc2s1`: the solubility stood at 0.658 mM (≈ 0.11 mg/mL).

Still in this data set, the particulars now being: 25 °C.
`CC(C)CCCCCOC(=O)c1ccccc1C(=O)OCCCCCC(C)C` yielded a solubility of 0.00023 mM (≈ 9e-05 mg/mL). The same measure, in the same setting: then `CC(CCc1ccccc1)NCC(O)c1ccc(O)c(C(N)=O)c1` (stereo unspecified), with 0.356 mM (≈ 0.117 mg/mL); and `CC(C)(C)NCC(O)COc1cccc2c1C[C@H](O)[C@H](O)C2` (stereo partly specified), with 26.9 mM (≈ 8.33 mg/mL); and `Nc1ccccc1Cl`, with 64 mM (≈ 8.16 mg/mL). `CN`: the solubility turned out to be 34800 mM (≈ 1080 mg/mL). The compound `CC(F)(F)Cl` showed a solubility of 13.9 mM (≈ 1.4 mg/mL). For `CCCCCCOC(=O)c1ccccc1C(=O)OCCCCCC`, the solubility amounted to 0.000149 mM (≈ 5e-05 mg/mL).

Consider `CC(=O)C=CC1=C(C)CCCC1(C)C`, for which the solubility is 0.879 mM (≈ 0.169 mg/mL). Take `CCCCCCCCCCCCCCCC`: the solubility is 3.97e-06 mM (≈ 9e-07 mg/mL).

Regarding `CC(=O)OCC(=O)[C@H]1CC[C@H]2[C@@H]3CCC4=CC(=O)CC[C@]4(C)[C@H]3CC[C@]12C`, the solubility amounted to 0.0234 mM (≈ 0.00873 mg/mL).

With `OCCNc1ccccc1`, the solubility turned out to be 335 mM (≈ 46 mg/mL).

`CN/C(=N\C#N)NCCSCc1nc[nH]c1C` yielded a solubility of 41 mM (≈ 10.3 mg/mL). Still for that read-out and setting: then `CC(Cl)C(Cl)Cl` (stereo unspecified), with 12.9 mM (≈ 1.9 mg/mL). As to `CC(C)(C)c1cccc(C(C)(C)C)c1O`, the solubility came to 0.0121 mM (≈ 0.0025 mg/mL). Compound `c1ccc2c(c1)ccc1cc3ccc4ccccc4c3cc12` showed a solubility of 3.7e-06 mM (≈ 1.03e-06 mg/mL). `O=C1C2(Cl)C3(Cl)C4(Cl)C(Cl)(Cl)C5(Cl)C3(Cl)C1(Cl)C5(Cl)C24Cl` (stereo unspecified) came in with a solubility of 0.0055 mM (≈ 0.0027 mg/mL).

As to `CC(=O)N(C)N=O`, the solubility worked out at 170 mM (≈ 17.4 mg/mL).

`CCCCOC(=O)c1ccccc1` yielded a solubility of 0.331 mM (≈ 0.059 mg/mL).

The same data set, now with this note: 25.0 °C.
Consider `FCC(F)(F)C(F)F`, for which the log10 OH rate constant (cm³/molecule/s) is -14. As for `FC(F)C(F)(F)OCC(F)(F)F`, the log10 OH rate constant (cm³/molecule/s) was -13. With `CC1(C)C2CCC(=O)C1C2` (stereo unspecified), the log10 OH rate constant (cm³/molecule/s) is -10.8. For `CCCc1c(F)c(F)c(F)c(F)c1F`, the log10 OH rate constant (cm³/molecule/s) was -11.5. `CCC(CC)(CC)CC` registered a log10 OH rate constant (cm³/molecule/s) of -11.3. In turn, `BrCBr` had a log10 OH rate constant (cm³/molecule/s) of -12.9.

Compound `C/C(C=O)=C\C=C\C=O` had a log10 OH rate constant (cm³/molecule/s) of -9.93. The compound `FC(F)CC(F)(F)F` returned a log10 OH rate constant (cm³/molecule/s) of -14.1. Take `c1ccc2c(c1)oc1ccccc12`: the log10 OH rate constant (cm³/molecule/s) is -11.4.

Take `O=C/C=C/C=C/C=O`: the log10 OH rate constant (cm³/molecule/s) is -10. Turning to `FC(F)(F)CCC(F)(F)F`, the log10 OH rate constant (cm³/molecule/s) was -14.1.

Still in this data set, the particulars now being: 27 °C.
In turn, `NCCc1c[nH]c2ccc(O)cc12` gave a solubility of 114 mM (≈ 20 mg/mL).

Staying with this data set, now noted: 27.0 °C.
Consider `CC1=CC(=O)C=CC1=O`, for which the log10 OH rate constant (cm³/molecule/s) is -10.6.

The data set is the same for the next values; noted with them: 30 °C.
The compound `CNC(=O)Oc1cccc(C(C)C)c1` registered a solubility of 0.44 mM (≈ 0.085 mg/mL).

For `BrCBr`, the solubility came out at 68.5 mM (≈ 11.9 mg/mL).
